Consider 26 molecules from patent US11407767B2, “Heterocyclyl substituted pyrrolopyridines that are inhibitors of the CDK12 kinase” (The University of Nottingham, priority 2017, dated 2022).

The subject of one experiment is DM1 fibroblasts. The experiment in a line: Nuclear foci assay. The format is cell-based. Conditions: Fibroblast; DM1 fibroblasts treated for 24 hours, 11 point dilution 20 μM-19 nM, in situ hybridisation with cy3 labelled CAG10 probe. On the procedure:
DM1 fibroblasts were treated with compounds in an 11 point dilution series from 20 μM-19 nM for 24 hours. Following treatment, fluorescent in situ hybridisation was performed with a cy3 labelled CAG10 probe, to visualize nuclear foci and cells were analysed on a Molecular Devices plate reader with customised MetaExpress software (Ketley, A. et al. (2014). Hum Mol Genet, 23: 1551-1562). Compounds that reduced nuclear foci in a concentration dependent manner, compared to DMSO treated cells were identified.

Another experiment has as its target CDK12/CycK (Homo sapiens, UniProt Q9NYV4). The experiment in a line: Inhibition of CDK12 (ADP-Glo kinase assay). The note with it: 60 nM CDK12/CycK, 30 minutes pre-incubation, 1 μM ATP, 0.5 μM RBER-IRStide substrate, 1 h at 25° C., read-out: CDK12/cyclin K IC50. The experiment is classed as biochemical. The method in brief: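 ADP-Glo luminescence read after a 1 h, 25 °C reaction with 1 μM ATP and 0.5 μM RBER-IRStide peptide. Enzyme (60 nM) and compound were first pre-incubated 30 min; buffer 50 mM HEPES pH 7.5, 20 mM MgCl2, 3 mM MnCl2, 1% DMSO. IC50 fitted after blank subtraction.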
(ADP-Glo turns the ADP formed in a reaction into a luminescent signal.)

Counter-ions that a name gives are not always drawn. Where only a bound is given, the exact number is not on record here.

Chain of CDK12/CycK (Q9NYV4 whole entry): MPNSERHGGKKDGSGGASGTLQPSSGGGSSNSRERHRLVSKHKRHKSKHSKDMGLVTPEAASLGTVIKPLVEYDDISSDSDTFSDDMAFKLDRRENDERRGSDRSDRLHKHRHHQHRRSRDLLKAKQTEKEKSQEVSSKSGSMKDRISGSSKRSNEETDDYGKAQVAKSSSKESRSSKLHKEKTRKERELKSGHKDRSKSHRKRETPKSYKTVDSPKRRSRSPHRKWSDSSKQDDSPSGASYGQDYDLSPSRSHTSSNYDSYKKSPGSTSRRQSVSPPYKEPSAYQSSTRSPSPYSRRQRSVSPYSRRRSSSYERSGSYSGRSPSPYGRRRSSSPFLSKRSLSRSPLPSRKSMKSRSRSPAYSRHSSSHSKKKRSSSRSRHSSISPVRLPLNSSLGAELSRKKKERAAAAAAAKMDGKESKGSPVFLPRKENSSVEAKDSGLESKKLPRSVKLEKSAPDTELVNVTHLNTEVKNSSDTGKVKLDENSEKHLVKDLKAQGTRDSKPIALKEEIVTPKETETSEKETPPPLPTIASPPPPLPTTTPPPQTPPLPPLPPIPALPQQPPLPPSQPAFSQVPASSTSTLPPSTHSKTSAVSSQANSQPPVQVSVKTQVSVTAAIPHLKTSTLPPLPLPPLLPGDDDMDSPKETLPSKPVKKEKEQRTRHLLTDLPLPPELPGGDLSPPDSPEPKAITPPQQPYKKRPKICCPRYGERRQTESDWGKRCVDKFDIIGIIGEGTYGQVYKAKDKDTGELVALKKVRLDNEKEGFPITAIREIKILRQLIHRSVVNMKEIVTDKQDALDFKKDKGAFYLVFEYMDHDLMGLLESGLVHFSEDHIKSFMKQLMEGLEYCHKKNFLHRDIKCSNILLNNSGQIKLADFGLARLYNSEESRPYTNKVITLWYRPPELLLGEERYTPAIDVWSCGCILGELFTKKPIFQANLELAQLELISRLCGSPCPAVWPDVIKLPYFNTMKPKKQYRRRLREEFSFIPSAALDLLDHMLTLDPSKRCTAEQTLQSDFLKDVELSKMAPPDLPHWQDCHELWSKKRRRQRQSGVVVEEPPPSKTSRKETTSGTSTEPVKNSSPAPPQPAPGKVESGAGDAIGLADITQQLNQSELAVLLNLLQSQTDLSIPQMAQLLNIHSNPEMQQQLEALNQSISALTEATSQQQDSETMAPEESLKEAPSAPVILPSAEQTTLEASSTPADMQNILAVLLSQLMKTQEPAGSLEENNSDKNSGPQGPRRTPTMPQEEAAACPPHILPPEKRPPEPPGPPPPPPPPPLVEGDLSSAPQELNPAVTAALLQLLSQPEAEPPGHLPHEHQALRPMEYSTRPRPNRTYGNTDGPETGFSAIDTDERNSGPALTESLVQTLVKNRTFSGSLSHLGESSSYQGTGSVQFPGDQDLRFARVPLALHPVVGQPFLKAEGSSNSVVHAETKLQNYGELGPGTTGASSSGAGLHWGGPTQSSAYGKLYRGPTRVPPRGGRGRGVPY
Chain of CDK12/CycK (O75909 whole entry partner): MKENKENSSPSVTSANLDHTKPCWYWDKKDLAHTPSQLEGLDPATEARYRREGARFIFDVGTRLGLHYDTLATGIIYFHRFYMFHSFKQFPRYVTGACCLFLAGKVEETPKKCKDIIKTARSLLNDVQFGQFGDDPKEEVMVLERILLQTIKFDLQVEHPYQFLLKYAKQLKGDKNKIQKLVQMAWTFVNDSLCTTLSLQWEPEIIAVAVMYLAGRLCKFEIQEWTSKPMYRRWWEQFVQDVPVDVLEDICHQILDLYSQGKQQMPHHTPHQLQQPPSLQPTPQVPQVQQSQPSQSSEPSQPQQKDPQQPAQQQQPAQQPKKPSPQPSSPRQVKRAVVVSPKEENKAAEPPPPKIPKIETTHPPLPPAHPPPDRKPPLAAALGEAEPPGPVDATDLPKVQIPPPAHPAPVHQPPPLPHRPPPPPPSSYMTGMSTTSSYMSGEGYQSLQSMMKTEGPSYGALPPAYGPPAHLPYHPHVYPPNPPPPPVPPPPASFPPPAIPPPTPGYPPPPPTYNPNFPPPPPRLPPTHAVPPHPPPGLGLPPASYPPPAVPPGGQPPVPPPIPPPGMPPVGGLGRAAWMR

Regarding `CN(C)C/C=C/C(=O)N1CCC[C@H]1C(=O)NCCc1cc2c(-c3cnn4ncccc34)ccnc2[nH]1` [Example 84, (S,E)-1-(4-(Dimethylamino)but-2-enoyl)-N-(2-(4-(pyrazolo[1,5-b]pyridazin-3-yl)-1H-pyrrolo[2,3-b]pyridin-2-yl)ethyl)pyrrolidine-2-carboxamide], the IC50 in the experiment with DM1 fibroblasts lay within 10 to 100 µM; on CDK12/CycK it was 1 to 30 µM.

Take `C=CC(=O)N1CCC[C@H](C(=O)NCCc2cc3c(-c4cnn5ncccc45)ccnc3[nH]2)C1` [Example 35, (S)-1-acryloyl-N-(2-(4-(pyrazolo[1,5-b]pyridazin-3-yl)-1H-pyrrolo[2,3-b]pyridin-2-yl)ethyl)piperidine-3-carboxamide]: the figures for the IC50 with DM1 fibroblasts and on CDK12/CycK were less than 1 µM and less than 0.1 µM, respectively.

For the molecule `OCc1cc2c(-c3cnn4ncccc34)ccnc2[nH]1` [Example 11, (4-(Pyrazolo[1,5-b]pyridazin-3-yl)-1H-pyrrolo[2,3-b]pyridin-2-yl)methanol], the IC50 is 1 to 10 µM in the experiment with DM1 fibroblasts and 0.1 to 1 µM on CDK12/CycK.

As for `C#CC(=O)Nc1cccc(C(=O)N2CCC(c3cc4c(-c5cnn6ncccc56)ccnc4[nH]3)C2)c1` (stereo not shown) [Example 146, N-(3-(3-(4-(Pyrazolo[1,5-b]pyridazin-3-yl)-1H-pyrrolo[2,3-b]pyridin-2-yl)pyrrolidine-1-carbonyl)phenyl)propiolamide], the IC50 in the experiment with DM1 fibroblasts is less than 1 µM; on CDK12/CycK it was less than 0.1 µM.

In the case of `C=CC(=O)N1CC(C(=O)NCCc2cc3c(-c4cnn5ncccc45)ccnc3[nH]2)C1` [Example 37, 1-Acryloyl-N-(2-(4-(pyrazolo[1,5-b]pyridazin-3-yl)-1H-pyrrolo[2,3-b]pyridin-2-yl)ethyl)azetidine-3-carboxamide], the IC50 in the experiment on DM1 fibroblasts is 1 to 10 µM; at CDK12/CycK it was less than 0.1 µM.

As for `C=CC(=O)Nc1cccc(C(=O)NCCc2cc3c(-c4cnn5ncccc45)ccnc3[nH]2)c1` [Example 36, 3-Acrylamido-N-(2-(4-(pyrazolo[1,5-b]pyridazin-3-yl)-1H-pyrrolo[2,3-b]pyridin-2-yl)ethyl)benzamide], the IC50 in the experiment on DM1 fibroblasts is less than 1 µM; at CDK12/CycK it was less than 0.1 µM.

As to `O=C(CCl)Nc1ccc(C(=O)N2CCC(c3cc4c(-c5cnn6ncccc56)ccnc4[nH]3)C2)cc1` (stereo not shown) [Example 144, 2-Chloro-N-(4-(3-(4-(pyrazolo[1,5-b]pyridazin-3-yl)-1H-pyrrolo[2,3-b]pyridin-2-yl)pyrrolidine-1-carbonyl)phenyl)acetamide], the figures for the IC50 in the experiment with DM1 fibroblasts and at CDK12/CycK were less than 1 µM and less than 0.1 µM, respectively.

As to `C=CC(=O)Nc1ccc(C(=O)N2CCN(Cc3cc4c(-c5cnn6ncccc56)ccnc4[nH]3)CC2)cc1` [Example 112, N-(4-(4-((4-(Pyrazolo[1,5-b]pyridazin-3-yl)-1H-pyrrolo[2,3-b]pyridin-2-yl)methyl)piperazine-1-carbonyl)phenyl)acrylamide], the IC50 was 1 to 10 µM in the experiment with DM1 fibroblasts and 0.1 to 1 µM on CDK12/CycK.

Take `NC(=O)c1cc2c(-c3cnn4ncccc34)ccnc2[nH]1` [Example 6, 4-(Pyrazolo[1,5-b]pyridazin-3-yl)-1H-pyrrolo[2,3-b]pyridine-2-carboxamide]: the values for the IC50 in the experiment with DM1 fibroblasts and on CDK12/CycK were 1 to 10 µM and 0.1 to 1 µM, respectively.

As to `C=CC(=O)NC(Cc1ccccc1)C(=O)NCCc1cc2c(-c3cnn4ncccc34)ccnc2[nH]1` (stereo not shown) [Example 211, N-(1-Oxo-3-phenyl-1-((2-(4-(pyrazolo[1,5-b]pyridazin-3-yl)-1H-pyrrolo[2,3-b]pyridin-2-yl)ethyl)amino)propan-2-yl)acrylamide], the IC50 in the experiment with DM1 fibroblasts was in the range of 1 to 10 µM; at CDK12/CycK, 0.1 to 1 µM.

For `CN(C)C/C=C/C(=O)Nc1ccc(C(=O)N2CCC(c3cc4c(-c5cnn6ncccc56)ccnc4[nH]3)C2)cc1` (stereo not shown) [Example 127, (E)-4-(Dimethylamino)-N-(4-(3-(4-(pyrazolo[1,5-b]pyridazin-3-yl)-1H-pyrrolo[2,3-b]pyridin-2-yl)pyrrolidine-1-carbonyl)phenyl)but-2-enamide Formate Salt], the IC50 is less than 1 µM with DM1 fibroblasts and less than 0.1 µM at CDK12/CycK.

`C=C(C)C(=O)N1CCC[C@H]1C(=O)NCCc1cc2c(-c3cnn4ncccc34)ccnc2[nH]1` [Example 43, (S)-1-Methacryloyl-N-(2-(4-(pyrazolo[1,5-b]pyridazin-3-yl)-1H-pyrrolo[2,3-b]pyridin-2-yl)ethyl)pyrrolidine-2-carboxamide]: the IC50 in the experiment with DM1 fibroblasts was 10 to 100 µM; at CDK12/CycK it was 1 to 30 µM.

Take `C=CC(=O)Nc1cccc(C(=O)N2CCC(c3cc4c(-c5cnn6ncccc56)ccnc4[nH]3)C2)c1` (stereo not shown) [Example 141, N-(3-(3-(4-(Pyrazolo[1,5-b]pyridazin-3-yl)-1H-pyrrolo[2,3-b]pyridin-2-yl)pyrrolidine-1-carbonyl)phenyl)acrylamide]: the IC50 in the experiment on DM1 fibroblasts was less than 1 µM; at CDK12/CycK it was less than 0.1 µM.

For the molecule `C[C@@H](Cl)C(=O)N1CCC[C@@H]1C(=O)N1CCC(c2cc3c(-c4cnn5ncccc45)ccnc3[nH]2)C1` (stereo partly drawn) [Example 70, (2R)-2-Chloro-1-((2R)-2-(3-(4-(pyrazolo[1,5-b]pyridazin-3-yl)-1H-pyrrolo[2,3-b]pyridin-2-yl)pyrrolidine-1-carbonyl)pyrrolidin-1-yl)propan-1-one], the IC50 with DM1 fibroblasts was in the range of 1 to 10 µM; at CDK12/CycK, 0.1 to 1 µM.

Turning to `c1cc(-c2ccc3[nH]nnc3c2)c2cc[nH]c2n1` [Example 21, 5-(1H-Pyrrolo[2,3-b]pyridin-4-yl)-1H-benzo[d][1,2,3]triazole], the IC50 fell in the range of 10 to 100 µM with DM1 fibroblasts and 1 to 30 µM on CDK12/CycK.

As for `N#CN1CCC[C@H](C(=O)NCCc2cc3c(-c4cnn5ncccc45)ccnc3[nH]2)C1` [Example 210, (S)-1-cyano-N-(2-(4-(pyrazolo[1,5-b]pyridazin-3-yl)-1H-pyrrolo[2,3-b]pyridin-2-yl)ethyl)piperidine-3-carboxamide], the results for the IC50 in the experiment on DM1 fibroblasts and on CDK12/CycK were 1 to 10 µM and 0.1 to 1 µM, respectively.

Regarding `C=CC(=O)N1C[C@H](F)C[C@H]1C(=O)NCCc1cc2c(-c3cnn4ncccc34)ccnc2[nH]1` [Example 207, (2S,4R)-1-Acryloyl-4-fluoro-N-(2-(4-(pyrazolo[1,5-b]pyridazin-3-yl)-1H-pyrrolo[2,3-b]pyridin-2-yl)ethyl)pyrrolidine-2-carboxamide], the values for the IC50 in the experiment with DM1 fibroblasts and on CDK12/CycK were less than 1 µM and less than 0.1 µM, respectively.

For the molecule `COc1ccc2c(-c3ccnc4[nH]ccc34)cnn2n1` [Example 22, 6-Methoxy-3-(1H-pyrrolo[2,3-b]pyridin-4-yl)pyrazolo[1,5-b]pyridazine], the IC50 with DM1 fibroblasts lay within 10 to 100 µM; on CDK12/CycK it was 1 to 30 µM.

Consider `O=C(CCl)Nc1cccc(C(=O)N2CC[C@H](c3cc4c(-c5cnn6ncccc56)ccnc4[nH]3)C2)c1` [Example 160, (S)-2-Chloro-N-(3-(3-(4-(pyrazolo[1,5-b]pyridazin-3-yl)-1H-pyrrolo[2,3-b]pyridin-2-yl)pyrrolidine-1-carbonyl)phenyl)acetamide], for which the IC50 was less than 1 µM in the experiment on DM1 fibroblasts and less than 0.1 µM at CDK12/CycK.

`C=CC(=O)N1CCC[C@H](C(=O)NCCc2cc3c(-c4cnn5ncccc45)c(Cl)cnc3[nH]2)C1` [Example 55, (S)-1-Acryloyl-N-(2-(5-chloro-4-(pyrazolo[1,5-b]pyridazin-3-yl)-1H-pyrrolo[2,3-b]pyridin-2-yl)ethyl)piperidine-3-carboxamide]: the IC50 in the experiment on DM1 fibroblasts is 1 to 10 µM; at CDK12/CycK, less than 0.1 µM.

As to `O=C(CCl)Nc1cccc(C(=O)N2CCC(c3cc4c(-c5cnn6ncccc56)ccnc4[nH]3)C2)c1` (stereo not shown) [Example 145, 2-Chloro-N-(3-(3-(4-(pyrazolo[1,5-b]pyridazin-3-yl)-1H-pyrrolo[2,3-b]pyridin-2-yl)pyrrolidine-1-carbonyl)phenyl)acetamide], the IC50 in the experiment with DM1 fibroblasts was less than 1 µM; on CDK12/CycK it was less than 0.1 µM.

For the molecule `CN(C)C/C=C/C(=O)Nc1cccc(C(=O)NCCc2cc3c(-c4cnn5ncccc45)ccnc3[nH]2)c1` [Example 200, (E)-3-(4-(Dimethylamino)but-2-enamido)-N-(2-(4-(pyrazolo[1,5-b]pyridazin-3-yl)-1H-pyrrolo[2,3-b]pyridin-2-yl)ethyl)benzamide], the IC50 in the experiment on DM1 fibroblasts is 10 to 100 µM; on CDK12/CycK, 0.1 to 1 µM.

Turning to `C=CC(=O)N1CCC[C@@H]1C(=O)NCCc1cc2c(-c3cnn4ncccc34)c(Cl)cnc2[nH]1` [Example 54, (R)-1-Acryloyl-N-(2-(5-chloro-4-(pyrazolo[1,5-b]pyridazin-3-yl)-1H-pyrrolo[2,3-b]pyridin-2-yl)ethyl)pyrrolidine-2-carboxamide], the IC50 in the experiment with DM1 fibroblasts is less than 1 µM; on CDK12/CycK it was less than 0.1 µM.

As for `C=CC(=O)N1CCOC[C@@H]1C(=O)NCCc1cc2c(-c3cnn4ncccc34)ccnc2[nH]1` [Example 63, (R)-4-Acryloyl-N-(2-(4-(pyrazolo[1,5-b]pyridazin-3-yl)-1H-pyrrolo[2,3-b]pyridin-2-yl)ethyl)morpholine-3-carboxamide], the IC50 with DM1 fibroblasts was less than 1 µM; on CDK12/CycK, less than 0.1 µM.

For the molecule `C=CC(=O)N1CCC[C@@H](C(=O)NCCc2cc3c(-c4cnn5ncccc45)ccnc3[nH]2)C1` [Example 34, (R)-1-Acryloyl-N-(2-(4-(pyrazolo[1,5-b]pyridazin-3-yl)-1H-pyrrolo[2,3-b]pyridin-2-yl)ethyl)piperidine-3-carboxamide], the values for the IC50 with DM1 fibroblasts and at CDK12/CycK were 1 to 10 µM and less than 0.1 µM, respectively.

As to `C=CC(=O)N1CCC[C@H]1C(=O)N1CCN(Cc2cc3c(-c4cnn5ncccc45)ccnc3[nH]2)CC1` [Example 113, (S)-1-(2-(4-((4-(Pyrazolo[1,5-b]pyridazin-3-yl)-1H-pyrrolo[2,3-b]pyridin-2-yl)methyl)piperazine-1-carbonyl)pyrrolidin-1-yl)prop-2-en-1-one], the IC50 lay in the range of 10 to 100 µM with DM1 fibroblasts and 1 to 30 µM on CDK12/CycK.
